Test results taken from ChEMBL document CHEMBL3779781, “New direct inhibitors of InhA with antimycobacterial activity based on a tetrahydropyran scaffold” (Eur J Med Chem, 2016).
In brackets after ≈: the same amount, converted by molar mass.

Experiments:
[1] = tested on: Mycobacterium tuberculosis; test: Antimycobacterial activity against Mycobacterium bovis BCG after 2 weeks; assay type: functional; settings: variant bovis BCG, 336 h
[2] = tested on: Mycobacterium tuberculosis; test: Ratio of MIC for Mycobacterium bovis BCG overexpressing InhA to MIC for Mycobacterium bovis BCG; assay type: functional, variant bovis BCG
[3] = tested on: Mycobacterium tuberculosis; test: Antimycobacterial activity against Mycobacterium bovis BCG overexpressing InhA after 2 weeks; assay type: functional; settings: variant bovis BCG, 336 h

Row | Structure (SMILES) | MIC [1] [µg/mL] | Ratio [2] | MIC [3] [µg/mL]
1 | Cc1cc(C)n(Cc2ccc(C(=O)NCC3(c4nc(-c5ccccc5)cs4)CCOCC3)cc2)n1 | 7.8 (≈ 16 µM) | 4 | 31.3 (≈ 64.3 µM)
2 | NNC(=O)c1ccncc1 [ISONIAZID] | 0.75 (≈ 5.47 µM) | >21 | > 16
3 | NC[C@H]1O[C@H](O[C@H]2[C@H](O)[C@@H](O[C@H]3O[C@H](CO)[C@@H](O)[C@H](N)[C@H]3O)[C@H](N)C[C@@H]2N)[C@H](O)[C@@H](O)[C@@H]1O [KANAMYCIN] | 0.6 (≈ 1.24 µM) | 1 | 0.6 (≈ 1.24 µM)
